Literature values, collected in patent EP2697366B1, “B[…] THE PRESERVATION OF CELLULAR FUN[…] CLINICAL CELL THERAPY” (Johann Wolfgang Goethe-Universität, Frankfurt am Main, priority 2011, dated 2018).

What was measured:
[1] = in vivo
[2] = two large clinical studies

In the case of CC[C@H](C)[C@H](NC(=O)[C@H](CCC(=O)O)NC(=O)[C@H](CCC(=O)O)NC(=O)[C@H](Cc1ccccc1)NC(=O)[C@H](CC(=O)O)NC(=O)CNC(=O)[C@H](CC(N)=O)NC(=O)CNC(=O)CNC(=O)CNC(=O)CNC(=O)[C@@H]1CCCN1C(=O)[C@H](CCCNC(=N)N)NC(=O)[C@@H]1CCCN1C(=O)[C@H](N)Cc1ccccc1)C(=O)N1CCC[C@H]1C(=O)N[C@@H](CCC(=O)O)C(=O)N[C@@H](CCC(=O)O)C(=O)N[C@@H](Cc1ccc(O)cc1)C(=O)N[C@@H](CC(C)C)C(=O)O [Bivalirudin], the Eliminationshalbwertszeit [1] is listed as “ca. 25 Minuten” and the “schwere Blutungskomplikationen” value [2] is listed as “hochsignifikanten Reduktion schwerer Blutungskomplikationen”.
